Here are results for one compound from patent US10053455B2, “Diazaspiroalkaneone-substituted oxazole derivatives as spleen tyrosine kinase inhibitors” (AB SCIENCE, priority 2014, dated 2018).

Where two headings read alike, the source gives them in different places.

For one data set, the target named is Jak2 (Homo sapiens (Human), UniProt O60674). In words: HTRF kinase assay, Jak2. The data set is classed as biochemical. The note with it: enzymatic determination. Here is the method:
(§1) Most of the kinases tested in this study were cloned, expressed and purified in the facilities of the inventors. They were expressed either as N-terminus hexahistidine-, hexahistidine-asparagine- or GST-tagged enzymes in a baculovirus or in a Colibacille expression system. Remaining enzymes (JAKs) were purchased from Millipore or Proqinase. For each enzyme, steady state kinetic parameters were determined and validated with known inhibitors.
(§2) The analysis of the effect of compounds on kinase activity was assessed with the HTRF® KinEASE assay (Cisbio International), an immuno-assay based on the quantification of the level of phosphorylation of a biotinylated peptide substrate using anti-phospho-specific antibody labeled with Europium (Eu^3+) cryptate. This assay comprises two steps: —an enzymatic step, during which the peptide substrate, the kinase, ATP, Mg^2+ and/or Mn^2+ are incubated with varying concentration of drug (from 0 to 10 μM); —a detection step, at the end of the reaction (stopped by addition of EDTA which chelates Mg^2+), the antibody anti-phospho peptide-Eu^3+ (emission 620 nm) and streptavidin XL-665 (emission 665 nm) are added to the reaction mix. […] Results are expressed in delta fluorescence (DF) unit defined as follow DF %=[(ratio−ratio blank)/(ratio blank)]*100, where ratio=(665 nm/620 nm)*10^4. […]

In a further data set the target is KIT D816V (Homo sapiens (Human), UniProt P10721, D816V). In words: Cell-based proliferation assay on BaF3 model, KIT D816V. On the procedure:
Cell-based proliferation and viability assay CellTiter-Bleue cell-based survival/proliferation assay (Promega G8080) was performed on BaF3 models.
A total of 1.10^4 cells/well/50 μl were seeded in a 96-wells plate. Treatment was initiated by addition of a 2× drug solution of ½ serial dilutions ranging from 0 to 10 μM. Cells were grown for 48-72 h at 37° C. and then incubated with 10 μl/well of Promega CellTiter-Bleue reagent for 4 h at 37° C. The amount of formazan dye formed was quantified by its absorbance at 450 nm using a scanning multiwell spectrophotometer (POLARstar Omega, BMG labtech, France). A blank well without cells was used as a background control for the spectrophotometer and all assays were performed in duplicates and the experiments were repeated at least twice.

For another data set, the target named is VEGFR2 (Homo sapiens (Human), UniProt P35968). In words: HTRF kinase assay, VEGFR2. The data set is classed as biochemical. As to conditions: enzymatic determination. Here is the method:
as §1, §2

A further data set deals with c-Met (Homo sapiens (Human), UniProt P08581). In words: HTRF kinase assay, c-Met. Type of data set: biochemical. As to conditions: enzymatic determination. On the procedure:
as §1, §2
On the technique in general: TR-FRET usually uses a lanthanide donor and a delayed reading to cut background.

In a further data set the target is c-Ret WT (Homo sapiens (Human), UniProt P07949). In words: HTRF kinase assay, c-Ret WT. The data set is classed as biochemical. The note with it: enzymatic determination. Here is the method: as §1, §2
Another data set concerns the target Btk (Homo sapiens (Human), UniProt Q06187). In words: HTRF kinase assay, Btk. Type of data set: biochemical. As to conditions: enzymatic determination. Here is the method:
as §1, §2

A further data set deals with TNFα. In words: FcεRI and Kit-induced TNFα cytokine release in BMMCs. Type of data set: cell-based, C57BL/6J mice. Here is the method: (§3) Murine bone marrow mast cells (BMMCs) are obtained by flushing bone marrow cells from the femurs of C57BL/6J mice, and then cultured for 3-4 weeks in RPMI containing mouse recombinant IL-3 (30 ng/ml). Cells were sensitized overnight in IL3-depleted culture medium with 0.1-0.2 μg/ml anti-DNP-IgE (Sigma-Aldrich D8406). Cells were preincubated with inhibitors for 30 min, and then stimulated with 10 ng/ml antigen (Ag) and/or Stem Cell Factor (SCF) (30 ng/ml). The cells were incubated for 6 h. The supernatants were harvested, and the cytokine content measured using CISBIO IL6 and TNFα HTRF assay (cat#63ADKEBU043 and 6FMTNPEB respectively).

A further data set has as its system IL6. In words: FcεRI and Kit-induced IL6 cytokine release in BMMCs. Type of data set: cell-based, C57BL/6J mice. Here is the method:
as §3

The next data set has as its system Myeloperoxidase (MPO). In words: Myeloperoxidase activity in K/BxN arthritis model. The data set is classed as in vivo, C57Bl/6 mice. Here is the method:
K/B×N serum pools were prepared from arthritic mice at 8 weeks of age. The mice were pre-treated with SYK inhibitors by two per os administration for two days before induction of arthritis. Arthritis was induced in the C57Bl/6 mice (8 weeks of age) by intraperitoneal injection (7.5 μl serum per g weight) at days 0 and 2.
The treatment with SYK inhibitors was continued for 13 days. The control mice were injected with solvent before the induction of arthritis and during the course of the disease. The compounds were dissolved in a solution containing 10% of Tween 80 and 10% 1-2 propandiol. It was prepared before administration.
MPO activity was determined following published protocol (American Journal of Pathology, (2000), 156 (6):2169-2177). Briefly, tissue samples were weighed and suspended in 50 mmol/L potassium phosphate buffer (pH 6.0) containing 5 mg/ml hexadecyltrimethylammonium bromide (Sigma Chemical Co.) at a ratio of 50 mg tissue to 1 ml of buffer. […] Using a microtiter plate scanner, 200 μl of the reaction mixture (containing 16.7 mg of o-dianisidine (Sigma Chemical Co.), […] of distilled H2O, […] of potassium-phosphate buffer, and 50 μl of 1% H2O2) was added to each well containing 7 μl of sample in a standard 96-well plate and three absorbance readings at 5 min intervals at 450 nm were recorded.

Another data set deals with hERG (Homo sapiens (Human), UniProt Q12809). In words: Predictor hERG Fluorescence Polarization binding assay. As to conditions: 100% = E-4031.
Chain of hERG (Q12809 whole entry): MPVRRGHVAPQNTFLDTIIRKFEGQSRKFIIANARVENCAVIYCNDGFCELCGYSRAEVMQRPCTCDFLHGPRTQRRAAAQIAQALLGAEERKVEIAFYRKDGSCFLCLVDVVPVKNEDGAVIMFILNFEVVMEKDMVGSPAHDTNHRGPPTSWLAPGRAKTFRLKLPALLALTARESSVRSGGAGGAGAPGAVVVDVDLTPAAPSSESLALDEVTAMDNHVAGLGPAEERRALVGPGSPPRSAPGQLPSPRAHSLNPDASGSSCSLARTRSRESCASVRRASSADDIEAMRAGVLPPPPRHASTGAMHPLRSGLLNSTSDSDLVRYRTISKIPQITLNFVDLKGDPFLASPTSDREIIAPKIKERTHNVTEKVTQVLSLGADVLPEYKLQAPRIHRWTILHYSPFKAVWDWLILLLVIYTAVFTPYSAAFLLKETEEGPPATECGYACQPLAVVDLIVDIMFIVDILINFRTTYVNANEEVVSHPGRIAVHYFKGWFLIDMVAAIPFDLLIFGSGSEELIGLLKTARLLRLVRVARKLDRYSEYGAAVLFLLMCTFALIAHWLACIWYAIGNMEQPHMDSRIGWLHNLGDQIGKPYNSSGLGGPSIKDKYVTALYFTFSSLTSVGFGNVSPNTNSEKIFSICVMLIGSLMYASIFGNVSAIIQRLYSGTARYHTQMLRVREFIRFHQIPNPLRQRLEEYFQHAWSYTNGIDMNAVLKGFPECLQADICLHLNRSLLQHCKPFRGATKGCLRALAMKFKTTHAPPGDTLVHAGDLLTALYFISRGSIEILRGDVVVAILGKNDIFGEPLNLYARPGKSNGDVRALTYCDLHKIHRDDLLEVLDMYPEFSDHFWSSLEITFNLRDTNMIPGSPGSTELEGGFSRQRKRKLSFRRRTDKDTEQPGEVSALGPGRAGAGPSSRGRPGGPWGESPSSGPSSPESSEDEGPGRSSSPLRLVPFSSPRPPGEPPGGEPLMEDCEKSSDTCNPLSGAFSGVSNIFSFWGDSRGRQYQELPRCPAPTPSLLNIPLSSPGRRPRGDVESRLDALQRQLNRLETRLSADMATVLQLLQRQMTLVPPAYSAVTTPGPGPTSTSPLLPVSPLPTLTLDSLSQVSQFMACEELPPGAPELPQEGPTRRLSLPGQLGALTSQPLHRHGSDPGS

Chain of Jak2 (O60674 whole entry): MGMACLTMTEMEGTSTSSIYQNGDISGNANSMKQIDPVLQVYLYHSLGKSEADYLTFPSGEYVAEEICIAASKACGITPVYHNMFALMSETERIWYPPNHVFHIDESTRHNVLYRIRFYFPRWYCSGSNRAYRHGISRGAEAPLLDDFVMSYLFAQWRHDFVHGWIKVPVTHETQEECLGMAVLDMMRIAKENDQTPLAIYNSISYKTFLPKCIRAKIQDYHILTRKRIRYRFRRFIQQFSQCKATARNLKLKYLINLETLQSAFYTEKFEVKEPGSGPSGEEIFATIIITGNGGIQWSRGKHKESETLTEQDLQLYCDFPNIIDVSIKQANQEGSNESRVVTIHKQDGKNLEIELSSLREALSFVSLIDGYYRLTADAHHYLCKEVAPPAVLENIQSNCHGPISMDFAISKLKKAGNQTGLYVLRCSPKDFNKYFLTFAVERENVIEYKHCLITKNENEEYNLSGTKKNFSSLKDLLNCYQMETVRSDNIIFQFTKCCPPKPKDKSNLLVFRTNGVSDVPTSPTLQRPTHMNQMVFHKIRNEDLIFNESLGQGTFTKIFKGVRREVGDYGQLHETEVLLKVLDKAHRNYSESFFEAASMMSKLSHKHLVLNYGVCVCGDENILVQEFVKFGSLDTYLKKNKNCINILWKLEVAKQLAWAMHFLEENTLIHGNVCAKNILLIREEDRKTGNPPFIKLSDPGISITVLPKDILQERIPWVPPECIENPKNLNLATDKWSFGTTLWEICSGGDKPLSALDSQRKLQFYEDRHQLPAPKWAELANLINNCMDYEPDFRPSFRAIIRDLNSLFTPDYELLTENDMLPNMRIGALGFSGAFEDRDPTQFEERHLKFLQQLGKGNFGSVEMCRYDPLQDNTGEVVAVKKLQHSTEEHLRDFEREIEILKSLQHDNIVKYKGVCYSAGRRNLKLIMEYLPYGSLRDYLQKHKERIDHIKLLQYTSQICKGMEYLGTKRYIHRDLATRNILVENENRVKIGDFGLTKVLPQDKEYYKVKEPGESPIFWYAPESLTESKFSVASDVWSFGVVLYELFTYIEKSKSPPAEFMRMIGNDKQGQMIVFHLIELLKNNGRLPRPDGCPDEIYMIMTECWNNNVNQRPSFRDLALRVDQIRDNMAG
Chain of c-Ret WT (P07949 29-1114): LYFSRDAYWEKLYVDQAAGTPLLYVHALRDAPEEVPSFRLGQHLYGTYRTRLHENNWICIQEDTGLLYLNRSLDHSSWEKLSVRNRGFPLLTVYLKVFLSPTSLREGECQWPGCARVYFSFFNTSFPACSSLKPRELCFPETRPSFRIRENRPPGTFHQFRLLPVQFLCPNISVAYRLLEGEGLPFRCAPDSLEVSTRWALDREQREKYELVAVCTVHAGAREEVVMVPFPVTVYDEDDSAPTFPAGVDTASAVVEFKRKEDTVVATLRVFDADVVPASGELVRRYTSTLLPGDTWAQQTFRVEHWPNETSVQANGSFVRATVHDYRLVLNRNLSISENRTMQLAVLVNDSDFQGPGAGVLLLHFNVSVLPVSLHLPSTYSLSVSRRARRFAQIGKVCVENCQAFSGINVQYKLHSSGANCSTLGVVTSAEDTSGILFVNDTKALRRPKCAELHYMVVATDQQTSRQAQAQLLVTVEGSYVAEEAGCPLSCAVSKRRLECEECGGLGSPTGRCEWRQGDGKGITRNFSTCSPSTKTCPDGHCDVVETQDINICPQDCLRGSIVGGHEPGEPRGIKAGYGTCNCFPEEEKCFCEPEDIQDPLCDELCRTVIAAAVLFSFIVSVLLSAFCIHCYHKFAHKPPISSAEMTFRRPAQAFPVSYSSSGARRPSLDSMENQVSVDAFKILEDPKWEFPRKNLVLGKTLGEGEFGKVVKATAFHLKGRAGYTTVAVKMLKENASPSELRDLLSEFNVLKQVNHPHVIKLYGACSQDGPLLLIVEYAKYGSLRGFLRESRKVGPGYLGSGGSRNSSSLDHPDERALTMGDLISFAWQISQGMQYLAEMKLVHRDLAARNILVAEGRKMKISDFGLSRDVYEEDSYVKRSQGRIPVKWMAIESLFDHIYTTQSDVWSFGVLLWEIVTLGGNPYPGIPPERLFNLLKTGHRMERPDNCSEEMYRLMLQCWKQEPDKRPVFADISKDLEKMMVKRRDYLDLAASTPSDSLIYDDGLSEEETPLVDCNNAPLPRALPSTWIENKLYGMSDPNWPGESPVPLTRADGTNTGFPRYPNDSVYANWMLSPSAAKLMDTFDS
Chain of c-Met (P08581 25-1390): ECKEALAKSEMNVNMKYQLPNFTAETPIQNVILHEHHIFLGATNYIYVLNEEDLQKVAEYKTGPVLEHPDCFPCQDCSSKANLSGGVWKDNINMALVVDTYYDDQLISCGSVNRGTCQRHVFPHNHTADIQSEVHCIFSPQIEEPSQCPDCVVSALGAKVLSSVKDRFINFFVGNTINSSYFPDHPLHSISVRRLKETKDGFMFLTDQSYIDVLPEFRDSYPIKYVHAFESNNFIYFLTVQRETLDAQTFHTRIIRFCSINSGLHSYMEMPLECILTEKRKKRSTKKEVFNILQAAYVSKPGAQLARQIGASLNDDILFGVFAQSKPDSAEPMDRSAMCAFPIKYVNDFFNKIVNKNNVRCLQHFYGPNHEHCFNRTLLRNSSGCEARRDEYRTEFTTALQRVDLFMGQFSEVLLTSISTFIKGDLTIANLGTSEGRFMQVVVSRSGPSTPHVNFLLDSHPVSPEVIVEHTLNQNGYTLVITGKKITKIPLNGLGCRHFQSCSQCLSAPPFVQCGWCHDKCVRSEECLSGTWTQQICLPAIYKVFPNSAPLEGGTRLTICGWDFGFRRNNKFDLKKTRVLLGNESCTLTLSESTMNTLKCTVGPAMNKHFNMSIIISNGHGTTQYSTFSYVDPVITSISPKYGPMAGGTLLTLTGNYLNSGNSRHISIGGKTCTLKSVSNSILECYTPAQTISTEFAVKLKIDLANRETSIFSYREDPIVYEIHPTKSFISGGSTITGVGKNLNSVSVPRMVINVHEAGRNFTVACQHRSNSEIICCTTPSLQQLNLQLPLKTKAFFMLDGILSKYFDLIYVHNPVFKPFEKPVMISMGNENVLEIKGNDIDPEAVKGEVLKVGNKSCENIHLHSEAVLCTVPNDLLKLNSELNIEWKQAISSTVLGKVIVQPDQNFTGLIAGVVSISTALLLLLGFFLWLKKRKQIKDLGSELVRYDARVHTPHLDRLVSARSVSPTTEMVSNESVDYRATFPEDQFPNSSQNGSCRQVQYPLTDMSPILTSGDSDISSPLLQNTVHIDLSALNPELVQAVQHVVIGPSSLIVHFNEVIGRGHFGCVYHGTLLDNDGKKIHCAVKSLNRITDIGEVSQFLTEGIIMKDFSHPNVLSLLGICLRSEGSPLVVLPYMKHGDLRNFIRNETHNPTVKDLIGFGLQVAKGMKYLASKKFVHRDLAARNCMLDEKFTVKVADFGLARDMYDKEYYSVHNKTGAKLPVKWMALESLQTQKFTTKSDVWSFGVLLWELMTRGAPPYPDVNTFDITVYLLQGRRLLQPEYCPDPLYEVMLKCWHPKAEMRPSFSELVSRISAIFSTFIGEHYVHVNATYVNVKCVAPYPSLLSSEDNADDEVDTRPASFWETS
Description for hERG: The activity of the test compounds on the hERG potassium channel was evaluated using a binding assay provided by Invitrogen (Predictor hERG Fluorescence Polarization assay Kit PV5365). The test was performed at a single concentration of 3 μM of drug. […] The data are expressed as a percentage of hERG inhibition, 100% corresponding to the inhibition obtained with E-4031 and 0% with the solvent DMSO (negative control).

Turning to `Cc1ccnc(Nc2cccc(-c3cnc(N4CCNC(=O)C45CC5)o3)c2)n1` [Compound 001, 4-{5-[3-(4-Methyl-pyrimidin-2-ylamino)-phenyl]-oxazol-2-yl}-4,7-diaza-spiro[2.5]octan-8-one], the IC50 (in general, the concentration needed to halve the response being measured) came out at 900 nM at Jak2 (read-out: Jak2 IC50); 920 nM at Jak2 (read-out: Kinase activity profile IC50 JAK 2); 10 µM on KIT D816V; 20 µM against VEGFR2; 10 µM against c-Met; 10 µM on c-Ret WT. Moreover, the IC50 against Btk is 20 µM; with TNFα (Mus musculus, BMMC, Ag + SCF stimulated BMMCs), ~50 nM; in the data set with IL6 (Mus musculus, BMMC, Ag + SCF stimulated BMMCs, read-out: IL-6 release IC50), ~50 nM. Moreover, the “TNFα Cytokine Release (% relative to control Ag + SCF)” value in the data set with TNFα (Ag + SCF + 0.01 μM of compound) was 95%; in the data set on TNFα (Ag + SCF + 0.1 μM of compound), 32%; in the data set with TNFα (Ag + SCF + 1 μM of compound), 2%. Besides, the “TNFα Cytokine Release (Relative Fluorescence Units)” value in the data set with TNFα (Ag + SCF + 0.01 μM of compound) is given as 468 Relative Fluorescence Units; in the data set on TNFα (Ag + SCF + 0.1 μM of compound), 158 Relative Fluorescence Units; in the data set on TNFα (Ag + SCF + 1 μM of compound), 9.5 Relative Fluorescence Units. The “IL6 Cytokine Release (% relative to control Ag + SCF)” value came to 89% in the data set with IL6 (Ag + SCF + 0.01 μM of compound), 29% in the data set with IL6 (Ag + SCF + 0.1 μM of compound) and 6% in the data set on IL6 (Ag + SCF + 1 μM of compound). Besides, the “IL6 Cytokine Release (Relative Fluorescence Units)” value is listed as 756.5 Relative Fluorescence Units with IL6 (Ag + SCF + 0.01 μM of compound), 249 Relative Fluorescence Units with IL6 (Ag + SCF + 0.1 μM of compound) and 54 Relative Fluorescence Units with IL6 (Ag + SCF + 1 μM of compound). Further, the MPO activity in the data set on Myeloperoxidase (MPO) (KBxN + 15 mg/kg b.i.d.) is reported as 1.031 ± 0.24 U/ml; in the data set on Myeloperoxidase (MPO) (KBxN + 50 mg/kg b.i.d.), 0.348 ± 0.08 U/ml. Also, at hERG, the inhibition (in general, the percentage by which the read-out fell short of the control) at 3 µM is 0%.
